In patent publication US9604982B2, “P2X7 modulators” (Janssen Pharmaceutica NV, priority 2013, dated 2017):

Tests used:
P2X7 [1] = molecular target: T1, P2X7 (Homo sapiens (Human), UniProt Q99572); test: Radioligand binding, human P2X7-1321N1 cell membranes, tracer tritiated A-804598; details: Table 3 (additional runs)
Procedure: (§1) P2X7 Antagonism in Recombinant Human P2X7 Cells or Recombinant Rat P2X7 Cells: (a) Ca^2+ Flux and (b) Radioligand Binding
On the day of the experiment, cell membrane preparations were made according to standard published methods. […] The compound can be prepared as described in the literature. […] The assay was terminated by filtration (GF/B filters pre-soaked with 0.3% PEI) and washed with washing buffer (Tris-HCl 50 mM). The IC50 generated in the binding assay was corrected for tracer concentration and affinity of the tracer to derive at the affinity (K) of the test compounds. […] Data are analyzed and graphed on Graphpad Prism 5.

[2] = molecular target: recombinant rat P2X7 channel (Rattus norvegicus (Rat), UniProt Q64663); test: Ca2+ flux (FLIPR) in 1321N1 cells expressing recombinant rat P2X7 channel; format: cell-based; details: Table 3 (additional runs); 250 μM BzATP
Sequence of recombinant rat P2X7 channel (Q64663 whole entry): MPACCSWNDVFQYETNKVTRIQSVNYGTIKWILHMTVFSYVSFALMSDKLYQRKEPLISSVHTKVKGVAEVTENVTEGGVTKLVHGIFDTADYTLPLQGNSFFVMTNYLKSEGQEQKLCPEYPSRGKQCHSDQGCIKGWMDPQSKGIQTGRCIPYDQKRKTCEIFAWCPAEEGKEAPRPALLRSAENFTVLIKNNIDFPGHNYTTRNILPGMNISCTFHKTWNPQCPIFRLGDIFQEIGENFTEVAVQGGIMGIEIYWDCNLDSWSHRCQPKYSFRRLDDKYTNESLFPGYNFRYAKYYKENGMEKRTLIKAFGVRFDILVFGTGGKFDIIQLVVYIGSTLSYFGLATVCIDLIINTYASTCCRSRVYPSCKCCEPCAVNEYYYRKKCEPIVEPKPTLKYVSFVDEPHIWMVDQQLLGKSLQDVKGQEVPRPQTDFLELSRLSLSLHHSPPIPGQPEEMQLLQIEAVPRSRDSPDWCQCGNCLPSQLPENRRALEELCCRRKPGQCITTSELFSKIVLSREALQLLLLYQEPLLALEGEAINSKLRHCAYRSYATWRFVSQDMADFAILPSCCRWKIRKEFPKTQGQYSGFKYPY
Procedure: as §1
(§2) (a) Ca^2+ flux: 1321N1 cells expressing the recombinant human or rat P2X7 channel was cultured in HyQ DME/(HyClone/Dulbecco's Modified Eagle Medium) high glucose supplemented with 10% Fetal Bovine Serum (FBS) and appropriate selection marker. Cells were seeded at a density of 25000 cells/well (96-well clear bottom black walled plates) in 100 μl volume/well. On the day of the experiment, cell plates were washed with assay buffer, containing (in mM): 130 NaCl, 2 KCl, 1 CaCl2, 1 MgCl2, 10 HEPES, 5 glucose; pH 7.40 and 300 mOs. After the wash, cells were loaded with the Calcium-4 dye (Molecular Device) and incubated in the dark for 60 minutes. Test compounds were prepared at 250× the test concentration in neat DMSO. Intermediate 96-well compound plates were prepared by transferring 1.2 μL of the compound into 300 μL of assay buffer. A further 3× dilution occurred when transferring 50 μL/well of the compound plate to 100 μL/well in the cell plate. Cells were incubated with test compounds and dye for 30 minutes. […] The fluorescence change was measured 180 seconds after adding the agonist.

P2X7 [3] = molecular target: T1, P2X7; test: Ca2+ flux (FLIPR) in 1321N1 cells expressing recombinant human P2X7 channel; format: cell-based; details: Table 3 (additional runs); 250 μM BzATP
Procedure: as §1, §2

P2X7 [4] = molecular target: T1, P2X7; test: P2X7 antagonism in human peripheral blood mononuclear cells (PBMCs), IL-1β release after LPS + Bz-ATP (ELISA); format: cell-based; details: P2X7, Table 3 (additional runs), 10 μM compound, 0.5 mM Bz-ATP, read-out: PBMC 10 μM (% control)
Procedure: Human blood was collected using a blood donor program. […] Cells were incubated for an additional 1.5 hours. […] Data are analyzed and graphed on Graphpad Prism 5. […] The IC50 for each compound is then uploaded into 3DX.

T1 sequence (Q99572 whole entry): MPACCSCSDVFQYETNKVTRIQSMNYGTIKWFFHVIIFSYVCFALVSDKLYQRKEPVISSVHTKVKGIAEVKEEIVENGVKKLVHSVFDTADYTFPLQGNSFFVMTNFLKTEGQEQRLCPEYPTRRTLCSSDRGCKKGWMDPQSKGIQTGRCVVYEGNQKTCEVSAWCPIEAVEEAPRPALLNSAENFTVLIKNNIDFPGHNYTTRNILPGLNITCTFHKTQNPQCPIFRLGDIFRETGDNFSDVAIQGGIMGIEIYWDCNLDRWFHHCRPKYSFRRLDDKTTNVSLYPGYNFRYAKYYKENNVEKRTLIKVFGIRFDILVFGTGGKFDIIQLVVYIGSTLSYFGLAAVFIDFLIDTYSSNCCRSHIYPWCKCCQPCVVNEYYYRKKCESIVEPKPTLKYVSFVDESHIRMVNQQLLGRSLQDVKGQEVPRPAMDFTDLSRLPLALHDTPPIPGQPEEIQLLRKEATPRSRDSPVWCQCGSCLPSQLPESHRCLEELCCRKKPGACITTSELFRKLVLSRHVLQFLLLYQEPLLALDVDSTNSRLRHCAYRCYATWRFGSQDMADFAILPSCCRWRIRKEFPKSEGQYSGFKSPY

Cc1nc2c(c(-c3ccn[nH]3)n1)C[C@H](C)N(C(=O)c1ccc(Cl)cc1F)C2 (single isomer, unassigned) [Example 89, (S*)-(4-chloro-2-fluorophenyl)(2,6-dimethyl-4-(1H-pyrazol-5-yl)-5,6-dihydropyrido[3,4-d]pyrimidin-7(8H)-yl)methanone]
Ki (P2X7 [1]): 0.0077 µM

Cc1nc2c(c(-c3ccn[nH]3)n1)C[C@@H](C)N(C(=O)c1cccc(OC(F)(F)F)c1)C2 (single isomer, unassigned) [Example 141, (R*)-(2,6-dimethyl-4-(1H-pyrazol-5-yl)-5,6-dihydropyrido[3,4-d]pyrimidin-7(8H)-yl)(3-(trifluoromethoxy)phenyl)methanone]
IC50 [2]: 12.4 µM
IC50 (P2X7 [3]): 9 µM

Cc1nc2c(c(-c3ccn[nH]3)n1)CC(C)N(C(=O)c1cccc(OC(F)(F)F)c1F)C2 (stereo not shown) [Example 139, (2,6-dimethyl-4-(1H-pyrazol-5-yl)-5,6-dihydropyrido[3,4-d]pyrimidin-7(8H)-yl)(2-fluoro-3-(trifluoromethoxy)phenyl)methanone]
IC50 [2]: 1.46 µM
remaining activity at 10 µM (P2X7 [4]): 2%

Cc1nc2c(c(-c3ccn[nH]3)n1)CC(C)N(C(=O)c1cccc(OC(F)(F)F)c1)C2 (stereo not shown) [Example 140, (2,6-dimethyl-4-(1H-pyrazol-5-yl)-5,6-dihydropyrido[3,4-d]pyrimidin-7(8H)-yl)(3-(trifluoromethoxy)phenyl)methanone]
IC50 [2]: 47.3 µM
remaining activity at 10 µM (P2X7 [4]): 52.5%
IC50 (P2X7 [3]): > 10 µM

Cc1nc2c(c(-c3ccn[nH]3)n1)CC(C)N(C(=O)c1cccc(F)c1Cl)C2 (stereo not shown) [Example 143, (2-chloro-3-fluorophenyl)(2,6-dimethyl-4-(1H-pyrazol-5-yl)-5,6-dihydropyrido[3,4-d]pyrimidin-7(8H)-yl)methanone]
IC50 [2]: 0.0522 µM
remaining activity at 10 µM (P2X7 [4]): 11.9%

COc1cccc(C(=O)N2Cc3nc(C)nc(-c4ccn[nH]4)c3CC2C)c1C (stereo not shown) [Example 146, (2,6-dimethyl-4-(1H-pyrazol-5-yl)-5,6-dihydropyrido[3,4-d]pyrimidin-7(8H)-yl)(3-methoxy-2-methylphenyl)methanone]
IC50 [2]: > 10 µM
remaining activity at 10 µM (P2X7 [4]): -0.8%
IC50 (P2X7 [3]): 1.06 µM
